Results taken from US20260209152A1, “Substituted Hydroxystilbene Compounds and Derivatives, Synthesis and Uses Thereof” (Kynan Duke IP, LLC, priority 2019, published 2026).

Experiments:
Experiment in all cases: CellTiter Glo cell viability assay
Type in all cases: cell-based, human
[1] = test system: Lung NCI-H1573; settings: Homo sapiens; NCI-H1573/CRL-5877; 11 dilutions 3-0.00001 μM; read-out: IC50
Summary of the method: (§1)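 Cells seeded at 1.7*10^3/well in quadruplicate; compounds at 18 two-fold dilutions from 5 μM (0.000038146-5 μM), or at 1, 2, 5, 10 and 20 μM. CellTiter Glo luminescence read on days 1, 3 and 5 after treatment. IC50 by nonlinear regression of luminescence versus log dose.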

[2] = test system: Bladder T24; settings: Homo sapiens; T24/HTB-4; 11 dilutions 3-0.00001 μM; read-out: IC50
Summary of the method: as §1

[3] = test system: Liver SNU-423; settings: Homo sapiens; SNU-423/CRL-2238; 11 dilutions 3-0.00001 μM; read-out: IC50
Summary of the method: as §1

[4] = test system: Pharynx DETROIT; settings: Homo sapiens; Detroit 562/CCL-138; 11 dilutions 3-0.00001 μM; read-out: IC50
Summary of the method: as §1

[5] = test system: Pharynx FADU; settings: Homo sapiens; Fadu/HTB-43; 11 dilutions 3-0.00001 μM; read-out: IC50
Summary of the method: as §1

[6] = test system: Ewing's Sarcoma HTB-166; settings: Homo sapiens; RD-ES/HTB-166; 11 dilutions 3-0.00001 μM; read-out: IC50
Summary of the method: as §1

[7] = test system: Kidney Caki-2; settings: Homo sapiens; Caki-2/HTB-47; 11 dilutions 3-0.00001 μM; read-out: IC50
Summary of the method: as §1

[8] = test system: Hypo-pharynx UPCI: SCC152; settings: Homo sapiens; UPCI: SCC152/CRL-3240; 11 dilutions 3-0.00001 μM; read-out: IC50
Summary of the method: as §1

[9] = test system: Kidney Caki-1; settings: Homo sapiens; Caki-1/HTB-46; 11 dilutions 3-0.00001 μM; read-out: IC50
Summary of the method: as §1

[10] = test system: Liver SNU-398; settings: Homo sapiens; SNU-398/CRL-2233; 11 dilutions 3-0.00001 μM; read-out: IC50
Summary of the method: as §1

[11] = test system: Pancreatic BxPC3; settings: Homo sapiens; BxPC-3/CRL-1687; 11 dilutions 3-0.00001 μM; read-out: IC50
Summary of the method: as §1

[12] = test system: Bladder UMUC_3; settings: Homo sapiens, UMUC3; UM-UC-3/CRL-1749; 11 dilutions 3-0.00001 μM; read-out: IC50
Summary of the method: as §1

[13] = test system: Liver HepG2; settings: Homo sapiens, HepG2; Hep G2/HB-8065; 11 dilutions 3-0.00001 μM; read-out: IC50
Summary of the method: as §1

[14] = test system: Tongue UPCI: SCC090; settings: Homo sapiens; UPCI: SCC090/CRL-3239; 11 dilutions 3-0.00001 μM; read-out: IC50
Summary of the method: as §1

[15] = test system: Lung NCI-H1437; settings: Homo sapiens; NCI-H1437/CRL-5872; 11 dilutions 3-0.00001 μM; read-out: IC50
Summary of the method: as §1

[16] = test system: Lung NCI-H2126; settings: Homo sapiens; NCI-H2126/CCL-256; 11 dilutions 3-0.00001 μM; read-out: IC50
Summary of the method: as §1

[17] = test system: Bladder HT-1197; settings: Homo sapiens, HT1197; HT-1197/CRL-1473; 11 dilutions 3-0.00001 μM; read-out: IC50
Summary of the method: as §1

[18] = test system: Bladder SCABER; settings: Homo sapiens; SCaBER/HTB-3; 11 dilutions 3-0.00001 μM; read-out: IC50
Summary of the method: as §1

[19] = test system: Pancreatic HPAFII; settings: Homo sapiens; HPAF-II/CRL-1997; 11 dilutions 3-0.00001 μM; read-out: IC50
Summary of the method: as §1

[20] = test system: Tongue SCC-4; settings: Homo sapiens; SCC-4/CRL-1624; 11 dilutions 3-0.00001 μM; read-out: IC50
Summary of the method: as §1

[21] = test system: Rhabomyosarcoma TE 159.T; settings: Homo sapiens; TE 159.T/CRL-7752; 11 dilutions 3-0.00001 μM; read-out: IC50
Summary of the method: as §1

Compound	IC50 [1] [nM]	IC50 [2] [nM]	IC50 [3] [nM]	IC50 [4] [nM]	IC50 [5] [nM]	IC50 [6] [nM]	IC50 [7] [nM]	IC50 [8] [nM]	IC50 [9] [nM]	IC50 [10] [nM]	IC50 [11] [nM]	IC50 [12] [nM]	IC50 [13] [nM]	IC50 [14] [nM]	IC50 [15] [nM]	IC50 [16] [nM]	IC50 [17] [nM]	IC50 [18] [nM]	IC50 [19] [nM]	IC50 [20] [nM]	further results
CCOc1cc(O)cc(/C=C/c2ccc(O)c(O)c2)c1CC=C(C)C [Compound 20, (E)-4-(3-Ethoxy-5-hydroxy-2-(3-methylbut-2-en-1-yl)styryl)benzene-1,2-diol]	55.8	111	119	122	80.1	338	302	149	96.3	110	1410	126	234	47.8	73.2	97	61.7	53.7	638	31.3	–
COc1cc(/C=C/c2cc(O)cc(OC)c2CC=C(C)C)ccc1NC=O [Compound 27, (E)-N-(4-(5-hydroxy-3-methoxy-2-(3-methylbut-2-en-1-yl)styryl)-2-methoxyphenyl)formamide]	48	32.5	53.5	20.3	28.6	133	1550	36.6	15.4	54	302	30.2	251	20	32.2	31	17.1	10.9	102	11.4	IC50 [21]: 31 nM
CCOc1cc(O)cc(/C=C/c2ccc(NC=O)c(OC)c2)c1CC=C(C)C [Compound 28, (E)-N-(4-(3-Ethoxy-5-hydroxy-2-(3-methylbut-2-en-1-yl)styryl)-2-methoxyphenyl)formamide]	21.2	22.1	27.5	11.4	11.8	65.1	69.8	20.5	7.2	32.7	175	21.3	99.1	56.1	25.9	10.7	12.2	6	111	3.1	–
